# Key:
# [1] = tested on: animal model of DMD; conditions: literature (Bizario 2009; Huang 2009; Ito 2013); cited from earlier work
# [2] = tested on: mdx mice; assay: Collagen I expression by western blotting in muscle tissue of mdx mice, 1st study; type: in vivo, mouse; conditions: western blot, normalized to alpha-tubulin; versus mdx mice; 60 mg/kg once daily, 4 weeks
# Procedure: The treatment of the mdx mice with nintedanib started at an age of 10 months in the 1st study and at 6 weeks in a 2nd study. Treatment duration was 4 weeks in the 1st study and 7 weeks in the 2nd study. Nintedanib was used at a dose of 60 mg/kg once daily administered intragastrically via gavage in both studies. In the 1st study, 7 mdx mice were treated with nintedanib, 5 mdx mice with the vehicle as placebo and 5 C57Bl6/mice (=wild type=WT) were used as unaffected, untreated control animals. At the end of the 1st study, electrophysiological examinations using electroneurography and electromyography and a histological analysis were performed. In addition, the level of collagen I expression was investigated using western blot in 4 mice of each test group.
# [3] = tested on: mdx mice; assay: Electroneurography (amplitude of motor evoked potentials / CMAP) in mdx mice, 1st study; type: in vivo, mouse; conditions: mdx mice aged 10 months, 60 mg/kg once daily intragastrically, 4 weeks; versus non-treated mdx mice; statistically significant in tibialis anterior
# Text: The mdx mouse is a well characterized and widely used animal model for drug tests for DMD (Bulfield et al., Proc Natl Acad Sci USA 1984, 81, 1189-92). Mdx mice spontaneously develop a pathology resembling aspects of the human disease. They present cycles of degeneration and regeneration in the limb muscles and a progressive degeneration and fibrosis in the diaphragm (Coirault et al., J Appl Physiol 2003, 94, 1744-50). The first wave of degeneration peaks in the fourth week of life. At day 21, muscular lesions can be observed, including myofiber necrosis, leaking myofibers as a consequence of injuries to the sarcolemma, high levels of serum creatine kinase, and the presence of large areas of inflammation, connective tissue, and fat (Collins and Morgan, Int J Exp Pathol 2003, 84, 165-72; Grounds et al., Neurobiol Dis 2008, 31, 1-19). Compulsory physical activity can be applied to exacerbate the muscular degeneration during this phase (De Luca et al., Am J Pathol 2005, 166, 477-89; Grounds et al., Neurobiol Dis 2008, 31, 1-19). The treatment of the mdx mice with nintedanib started at an age of 10 months in the 1st study and at 6 weeks in a 2nd study. […] In the group of the nintedanib-treated mdx mice, an increase in the amplitude of the motor evoked potentials in all nerves studied was detected in comparison to non-treated mdx mice (FIG. 1A-C). […]
# [4] = tested on: mdx mice; assay: Histological analysis of muscular fibrosis incl. immunofluorescent staining for collagen VI in mdx mice, 1st study; type: in vivo, mouse
# Procedure: The treatment of the mdx mice with nintedanib started at an age of 10 months in the 1st study and at 6 weeks in a 2nd study. Treatment duration was 4 weeks in the 1st study and 7 weeks in the 2nd study. Nintedanib was used at a dose of 60 mg/kg once daily administered intragastrically via gavage in both studies.
# In the 1st study, 7 mdx mice were treated with nintedanib, 5 mdx mice with the vehicle as placebo and 5 C57Bl6/mice (=wild type=WT) were used as unaffected, untreated control animals. At the end of the 1st study, electrophysiological examinations using electroneurography and electromyography and a histological analysis were performed. In addition, the level of collagen I expression was investigated using western blot in 4 mice of each test group.
# At the end of the 1st study, the diaphragm from non-treated mdx mice had increased fibrotic tissue areas, compared to WT mice, and inflammatory infiltrates.
# The fibrotic area of the muscles was assessed using immunofluorescent staining for collagen VI (Col VI). 8 photographs from different muscle sections of the quadriceps, tibialis anterior and diaphragm were randomly taken. […] The reduction of 7% by nintedanib treatment was statistically significant (p<0.001) (FIG. 3A).
# [5] = tested on: mdx mice; assay: Electromyography (percentage of small, medium and large MUAPs) in mdx mice, 1st study; type: in vivo, mouse; conditions: mdx mice aged 10 months, 60 mg/kg once daily intragastrically, 4 weeks
# Text: The mdx mouse is a well characterized and widely used animal model for drug tests for DMD (Bulfield et al., Proc Natl Acad Sci USA 1984, 81, 1189-92). Mdx mice spontaneously develop a pathology resembling aspects of the human disease. They present cycles of degeneration and regeneration in the limb muscles and a progressive degeneration and fibrosis in the diaphragm (Coirault et al., J Appl Physiol 2003, 94, 1744-50). The first wave of degeneration peaks in the fourth week of life. At day 21, muscular lesions can be observed, including myofiber necrosis, leaking myofibers as a consequence of injuries to the sarcolemma, high levels of serum creatine kinase, and the presence of large areas of inflammation, connective tissue, and fat (Collins and Morgan, Int J Exp Pathol 2003, 84, 165-72; Grounds et al., Neurobiol Dis 2008, 31, 1-19). Compulsory physical activity can be applied to exacerbate the muscular degeneration during this phase (De Luca et al., Am J Pathol 2005, 166, 477-89; Grounds et al., Neurobiol Dis 2008, 31, 1-19). The treatment of the mdx mice with nintedanib started at an age of 10 months in the 1st study and at 6 weeks in a 2nd study. […] In the electromyography the percentage of small, medium and large motor unit action potentials (MUAPs) were recorded (Gordon et al., Can J Physiol Pharmacol 2004, 82, 645-661).
# [6] = tested on: mdx mice; assay: Hanging wire test in mdx mice, 2nd study; type: in vivo, mouse; conditions: mdx mice from 6 weeks of age, 60 mg/kg once daily intragastrically
# Procedure: The treatment of the mdx mice with nintedanib started at an age of 10 months in the 1st study and at 6 weeks in a 2nd study. Treatment duration was 4 weeks in the 1st study and 7 weeks in the 2nd study. Nintedanib was used at a dose of 60 mg/kg once daily administered intragastrically via gavage in both studies. In the 2nd study, 7 mdx mice were treated with nintedanib, 5 mdx mice with the vehicle as placebo and no WT control was included as unaffected, untreated control animals. At the end of the 2nd study, a hanging wire test was performed. In the 2nd study a so called “hanging wire” test was performed (see section Examples and Experimental Data; Rabl et al., BMC Neurosci 2017, 18, 22). This test can be used to assess global “subacute” muscle function and coordination over time in young and old mdx mice. The longest suspension time (LST) and the “fall and reaches” score (FRS) were recorded before the start of the treatment period and after 7 weeks of treatment with nintedanib. […]
SMILES,efficacy in an animal model of DMD [1],collagen I (Col I) expression in the diaphragm [2],collagen I (Col I) expression in the tibialis anterior [2],"amplitude of the motor evoked potentials (CMAP) in all nerves studied (tibialis anterior, Gastrocnemius, Plantar muscle) [3]","reduction of mean Col VI-stained fibrotic area of the diaphragma by treatment ([4]; difference to non-treated mdx mice, p<0.001)","inflammatory infiltrates in the diaphragm (histology) ([4]; mdx mice aged 10 months, 60 mg/kg once daily intragastrically, 4 weeks)","fibrotic area of the diaphragm (histology) ([4]; mdx mice aged 10 months, 60 mg/kg once daily intragastrically, 4 weeks, versus non-treated mdx mice)","Col VI staining in tibialis anterior sections ([4]; mdx mice aged 10 months, 60 mg/kg once daily, 4 weeks, non-treated mdx 21.4%, p=0.06, not statistically significant)","Col VI staining in quadriceps sections ([4]; mdx mice aged 10 months, 60 mg/kg once daily, 4 weeks, non-treated mdx 25.4%, p=0.03)","mean fibrotic area stained for Col VI on the diaphragma ([4]; mdx mice aged 10 months, 60 mg/kg once daily, 4 weeks, non-treated mdx 57.8%, p<0.001)",large MUAPs [5],percentage of small MUAPs [5],"""fall and reaches"" score (FRS) ([6]; 7 week observation period, decreased in vehicle-treated mice)",longest suspension time (LST) ([6]; after 7 weeks of treatment versus before start)
Cc1ccc(NC(=O)c2ccc(CN3CCN(C)CC3)cc2)cc1Nc1nccc(-c2cccnc2)n1 [imatinib],had shown efficacy,–,–,–,–,–,–,–,–,–,–,–,–,–
"COC(=O)c1ccc2c(c1)NC(=O)/C2=C(\Nc1ccc(N(C)C(=O)CN2CCN(C)CC2)cc1)c1ccccc1 [nintedanib, Nintedanib]",–,statistically significant decrease,statistically significant decrease,increase,7%,not observed,clearly reduced,18.9%,23.1%,50.8%,increase,normalized,remained nearly constant,increased

# Source: US20180280385A1, “NINTEDANIB FOR USE IN METHODS FOR THE TREATMENT OF MUSCULAR DYSTROPHY” (Boehringer Ingelheim International GmbH, priority 2017, published 2018)
